Laboratory results: US20070054943A1, “Therapeutic agent for keratoconjunctival disorder” (SANTEN PHARMACEUTICAL CO., LTD., priority 2004, published 2007)
“Also recorded” adds a separate entry of the source.

Tested on: corneal disorder models
Assay: Test for therapeutic effect on corneal damage (corneal disorder models, exorbital lacrimal gland removal, fluorescein staining score)
Type: in vivo, male SD rats
Details: for Improvement ratio (%): {(control)-(compound)}/{(control)-(normal eye)}x100; for Mean value of total scores: fluorescein staining score (0-3 each for upper, middle, lower cornea), mean of 8 cases, normal eye 2.9, control 6.1; for effect on corneal damage (in words): rat corneal disorder models, instillation of rosiglitazone 0.02% or pioglitazone hydrochloride 0.01%, 6 times a day for 14 days
Procedure: Test For Therapeutic Effect On Corneal Damage
Using male SD rats, in accordance with the method of Fujihara et al. (Invest. Ophthalmol. Vis. Sci. 42 (1) 96-100 (2001)), corneal disorder models were produced. After the production of the corneal disorder models, the improvement ratio of a corneal damage was evaluated by a method (Journal of the eye 21 (1) : 87-90 (2004)) modified from the method of Miyata et al. (Japanese Review of Clinical Ophthalmology 48 (2) : 183-188 (1994)).
A male SD rat was systemically anesthetized by an administration of Nembutal. Subsequently the exorbital lacrimal gland was removed and a corneal damage was induced over a period of 2 months.
Then, the present compound (rosiglitazone or pioglitazone hydrochloride) was administered as follows.
A physiological saline solution of rosiglitazone (0.02%) was instilled into both eyes 6 times a day for 14 days (one group consisting of 8 animals).
A physiological saline solution of pioglitazone hydrochloride (0.01%) was instilled into both eyes 6 times a day for 14 days (one group consisting of 8 animals).
In a control group, physiological saline was instilled into both eyes 6 times a day for 14 days (one group consisting of 8 animals).
Fourteen days after the start of instillation, the damaged parts of the cornea were stained with fluorescein. For each of the upper, middle and lower parts of the cornea, the degree of fluorescein staining was evaluated by scoring according to the criteria shown below and the improvement ratio of corneal damage was calculated from the mean value of the total scores for each of the above-mentioned parts.
• 0: No punctate staining • 1: Scattered staining (punctate staining being separated) • 2: Moderate staining (a part of punctate staining being adjacent) • 3: Heavy staining (punctate staining being barely separated) (Results)
By taking the mean value of the total scores for the control group (physiological saline) as a standard (improvement ratio: 0%) and according to the calculation formula shown below, the improvement ratios for rosiglitazone (0.02%) instillation group and pioglitazone (0.01%) instillation group were calculated, which are shown in Table 1. The mean value of the scores is a mean of those of 8 cases, respectively. Improvement ratio(%)={(control)−(the present compound)}/damage degree×100
Damage degree=(control)−(normal eye)

[1] = 0.01% (pioglitazone hydrochloride) in physiological saline instilled into both eyes 6 times a day for 14 days
[2] = 0.02% in physiological saline instilled into both eyes 6 times a day for 14 days

| Structure (SMILES) | Improvement ratio (%) [1] [%] | Mean value of total scores [1] | effect on corneal damage (in words) (listed as pioglitazone) | effect on corneal damage (in words) (listed as pioglitazone hydrochloride) | Improvement ratio (%) [2] [%] | Mean value of total scores [2] | effect on corneal damage (in words) |
| --- | --- | --- | --- | --- | --- | --- | --- |
| CCc1ccc(CCOc2ccc(CC3SC(=O)NC3=O)cc2)nc1 (stereo not shown) [Pioglitazone, 5-[[4-[2-(5-ethyl-2-pyridinyl)ethoxy]phenyl]methyl]-2,4-thiazolidinedione] | 62.5 | 4.1 | significantly improve a corneal damage | excellent improving effect |  |  |  |
| CN(CCOc1ccc(CC2SC(=O)NC2=O)cc1)c1ccccn1 (stereo not shown) [Rosiglitazone, 5-[p-[2-(methyl-2-pyridylamino)ethoxy]benzyl]-2,4-thiazolidinedione] |  |  |  |  | 68.7 | 3.9 | excellent improving effect; also recorded: significantly improve a corneal damage |
